Measurements reported in patent publication US20230117470A1, “SUBSTITUTED PYRAZOLE COMPOUNDS AS TOLL RECEPTOR INHIBITORS” (BRISTOL-MYERS SQUIBB COMPANY, priority 2019, published 2023).
Structures can show the parent of a compound that is named as a salt.

What was measured:
Format in all cases: cell-based
human TLR8 = biological target: T1, human TLR8 (Homo sapiens, UniProt Q9NR97); assay: TLR8 inhibition reporter assay (HEK-Blue cells, SEAP reporter, R848 stimulation); conditions: HEK-Blue cells overexpressing human TLR8, SEAP reporter, R848 15.9 μM
T1 construct: host or cells: HEK-Blue cells
T1 sequence (Q9NR97 27-1041): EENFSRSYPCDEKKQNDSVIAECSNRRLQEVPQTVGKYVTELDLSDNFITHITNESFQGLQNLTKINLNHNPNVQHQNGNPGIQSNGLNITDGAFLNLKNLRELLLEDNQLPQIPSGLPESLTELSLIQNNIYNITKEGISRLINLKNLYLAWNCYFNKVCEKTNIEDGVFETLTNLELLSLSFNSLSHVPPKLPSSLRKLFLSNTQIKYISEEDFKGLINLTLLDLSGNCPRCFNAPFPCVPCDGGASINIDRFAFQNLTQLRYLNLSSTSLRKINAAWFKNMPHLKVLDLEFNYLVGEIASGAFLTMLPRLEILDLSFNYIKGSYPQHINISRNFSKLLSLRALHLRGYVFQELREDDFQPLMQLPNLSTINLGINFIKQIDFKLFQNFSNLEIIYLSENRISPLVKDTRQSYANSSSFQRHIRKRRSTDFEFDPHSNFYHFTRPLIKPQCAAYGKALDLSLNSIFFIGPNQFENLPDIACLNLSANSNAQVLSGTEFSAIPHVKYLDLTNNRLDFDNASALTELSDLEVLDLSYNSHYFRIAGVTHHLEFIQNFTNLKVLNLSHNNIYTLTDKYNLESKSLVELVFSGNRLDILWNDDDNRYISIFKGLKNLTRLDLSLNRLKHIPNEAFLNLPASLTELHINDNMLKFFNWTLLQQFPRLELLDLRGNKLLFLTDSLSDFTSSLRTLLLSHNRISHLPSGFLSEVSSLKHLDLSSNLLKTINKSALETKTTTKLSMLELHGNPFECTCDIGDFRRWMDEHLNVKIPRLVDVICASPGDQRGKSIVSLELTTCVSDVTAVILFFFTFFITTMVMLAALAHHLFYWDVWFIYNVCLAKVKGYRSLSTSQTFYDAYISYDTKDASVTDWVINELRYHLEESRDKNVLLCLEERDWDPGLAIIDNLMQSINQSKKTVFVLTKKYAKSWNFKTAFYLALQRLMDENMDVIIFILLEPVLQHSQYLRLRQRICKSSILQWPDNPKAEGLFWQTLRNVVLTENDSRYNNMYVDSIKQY
Method in brief: (§1)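 Ligand levels differed by receptor: TLR7 got gardiquimod at 7.5 μM, TLR8 got R848 at 15.9 μM, and TLR9 got ODN2006 at 5 nM, each added after a 30-min room-temperature compound exposure. Incubation lasted 22 h at 37° C before colorimetric SEAP detection.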

human TLR7 = biological target: T2, human TLR7 (Homo sapiens, UniProt Q9NYK1); assay: TLR7 inhibition reporter assay (HEK-Blue cells, SEAP reporter, gardiquimod stimulation); conditions: HEK-Blue cells overexpressing human TLR7, SEAP reporter, gardiquimod 7.5 μM
T2 construct: host or cells: HEK-Blue cells
T2 sequence (Q9NYK1 27-1049): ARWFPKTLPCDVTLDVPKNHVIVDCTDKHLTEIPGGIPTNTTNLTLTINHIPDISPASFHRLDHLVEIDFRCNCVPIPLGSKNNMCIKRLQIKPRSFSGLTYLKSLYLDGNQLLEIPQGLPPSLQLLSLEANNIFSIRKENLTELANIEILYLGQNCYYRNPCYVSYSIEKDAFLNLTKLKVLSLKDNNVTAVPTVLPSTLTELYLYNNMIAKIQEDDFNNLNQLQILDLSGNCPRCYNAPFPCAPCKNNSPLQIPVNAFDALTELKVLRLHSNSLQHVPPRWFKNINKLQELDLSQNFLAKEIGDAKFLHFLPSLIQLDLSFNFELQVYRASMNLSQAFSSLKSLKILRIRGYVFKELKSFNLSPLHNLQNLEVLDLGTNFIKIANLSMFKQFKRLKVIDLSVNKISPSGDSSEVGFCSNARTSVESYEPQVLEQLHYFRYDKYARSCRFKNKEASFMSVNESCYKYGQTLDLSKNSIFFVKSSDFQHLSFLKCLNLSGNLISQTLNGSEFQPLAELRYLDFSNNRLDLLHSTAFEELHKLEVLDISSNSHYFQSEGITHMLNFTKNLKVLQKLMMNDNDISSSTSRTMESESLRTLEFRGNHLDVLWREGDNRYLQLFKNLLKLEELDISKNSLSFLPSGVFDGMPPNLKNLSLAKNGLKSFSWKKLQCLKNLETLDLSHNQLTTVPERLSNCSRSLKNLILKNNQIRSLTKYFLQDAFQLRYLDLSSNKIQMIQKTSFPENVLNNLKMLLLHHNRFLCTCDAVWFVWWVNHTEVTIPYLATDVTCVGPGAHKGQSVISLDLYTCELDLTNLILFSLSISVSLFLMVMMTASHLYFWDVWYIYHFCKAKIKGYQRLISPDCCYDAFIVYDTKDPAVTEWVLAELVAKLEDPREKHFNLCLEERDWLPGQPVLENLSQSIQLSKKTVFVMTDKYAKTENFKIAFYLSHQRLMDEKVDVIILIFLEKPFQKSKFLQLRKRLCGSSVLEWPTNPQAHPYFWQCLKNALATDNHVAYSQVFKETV
Method in brief: as §1

human TLR9 = biological target: T3, human TLR9 (Homo sapiens, UniProt Q9NR96); assay: TLR9 inhibition reporter assay (HEK-Blue cells, SEAP reporter, ODN2006 stimulation); conditions: HEK-Blue cells overexpressing human TLR9, SEAP reporter, ODN2006 5 nM
T3 construct: host or cells: HEK-Blue cells
T3 sequence (Q9NR96 26-1032): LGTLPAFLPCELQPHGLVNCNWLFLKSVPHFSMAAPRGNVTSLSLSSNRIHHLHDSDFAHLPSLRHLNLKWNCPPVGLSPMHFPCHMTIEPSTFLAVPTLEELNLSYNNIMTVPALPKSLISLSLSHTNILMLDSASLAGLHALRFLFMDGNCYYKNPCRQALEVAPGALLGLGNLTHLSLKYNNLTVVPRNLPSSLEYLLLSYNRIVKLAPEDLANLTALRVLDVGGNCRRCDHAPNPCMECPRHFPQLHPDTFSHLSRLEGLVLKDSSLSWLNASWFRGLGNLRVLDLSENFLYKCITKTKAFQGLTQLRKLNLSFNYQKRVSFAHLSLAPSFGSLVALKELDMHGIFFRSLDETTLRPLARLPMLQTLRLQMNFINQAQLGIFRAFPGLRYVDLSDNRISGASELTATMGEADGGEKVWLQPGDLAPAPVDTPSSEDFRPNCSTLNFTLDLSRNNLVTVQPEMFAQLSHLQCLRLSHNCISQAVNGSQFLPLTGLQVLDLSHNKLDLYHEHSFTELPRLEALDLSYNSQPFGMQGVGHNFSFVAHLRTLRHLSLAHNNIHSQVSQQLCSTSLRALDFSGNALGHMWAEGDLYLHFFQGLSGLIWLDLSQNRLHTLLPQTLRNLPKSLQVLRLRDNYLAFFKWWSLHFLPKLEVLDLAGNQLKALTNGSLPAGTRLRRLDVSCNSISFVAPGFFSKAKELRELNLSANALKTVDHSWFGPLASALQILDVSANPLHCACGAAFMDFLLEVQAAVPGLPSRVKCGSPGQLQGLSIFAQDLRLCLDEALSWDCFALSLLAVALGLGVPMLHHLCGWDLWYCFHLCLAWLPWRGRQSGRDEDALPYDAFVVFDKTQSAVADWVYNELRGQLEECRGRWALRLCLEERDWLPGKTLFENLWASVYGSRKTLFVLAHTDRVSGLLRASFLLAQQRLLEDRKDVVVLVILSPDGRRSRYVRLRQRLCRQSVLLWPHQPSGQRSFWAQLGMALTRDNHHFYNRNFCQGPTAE
Method in brief: as §1

Compound	IC50 (human TLR8) [nM]	IC50 (human TLR7) [nM]	IC50 (human TLR9) [nM]
Cc1cc(-c2[nH]nc(C(=O)N(C)C3CCN(C)CC3)c2C(C)C)cn2ncnc12 [Example 6]	20.9	2.05	1100
Cc1cc(-c2[nH]nc(-c3ncc(C4CCNCC4)cn3)c2C(C)C)cn2ncnc12 [Example 341]	9	7.86	16500
Cc1cc(-c2[nH]nc(-c3ccc4c(c3)CCNC4=O)c2C(C)C)cn2ncnc12 [Example 215]	6	2.3	15000
Cc1cc(-c2[nH]nc(-c3ccncc3)c2C(C)C)cn2ncnc12 [Example 223]	10.3	8.65	14300
Cc1cc(-c2[nH]nc(C(=O)NC3CCN(C(C)C)CC3)c2C(C)C)cn2ncnc12 [Example 2]	5.82	2.27	6560
Cc1cc(-c2[nH]nc(-c3nc4c(s3)CN(C3CCN(C(C)C)CC3)CC4)c2C(C)C)cn2ncnc12 [Example 254]	22.7	26.8	29200
COCCN(C)C1CCC(NC(=O)c2n[nH]c(-c3cc(C)c4ncnn4c3)c2C(C)C)CC1 (stereo not drawn) [Example 128]	8.29	1.21	13400
Cc1cc(-c2[nH]nc(-c3nc4c(s3)CN(CC(C)C)CC4)c2C(C)C)cn2ncnc12 [Example 255]	4.88	6.86	15100
COc1cc(-c2[nH]nc(-c3ccc(C4CN(C(=O)CN(C)C)C4)cc3)c2C(C)C)cn2ncnc12 [compound 335]	11.1	15.5	> 50000
Cc1cc(-c2[nH]nc(C(=O)NCC3CN(C(C)C)CCO3)c2C(C)C)cn2ncnc12 (stereo not drawn) [Example 141]	13.5	3.03	12800
Cc1cc(-c2[nH]nc(-c3ccc(C4CCN(C(C)C)CC4)nc3)c2C(C)C)cn2ncnc12 [Example 361]	> 3130	719	45600

Now those with a lower IC50 (human TLR8), led by results:

IC50 (human TLR8) [nM]	IC50 (human TLR7) [nM]	IC50 (human TLR9) [nM]	Compound
0.65	2.6	22900	Cc1cc(-c2[nH]nc(-c3cccc(N(C)C)c3)c2C(C)C)cn2ncnc12 [Example 245]
0.79	0.94	5070	Cc1cc(-c2[nH]nc(C(=O)N3CC[C@H](N)C3)c2C(C)C)cn2ncnc12 [Example 53]
0.39	7.65	16800	Cc1cc(-c2[nH]nc(C3CCC(N4CCOCC4)CC3)c2C(C)C)cn2ncnc12 (single isomer, unassigned) [Example 291]
2.26	6.96	6240	Cc1cc(-c2[nH]nc(-c3ccc(C4CN(C)C4)cc3)c2C(C)C)cn2ncnc12 [Example 324, 6-(4-isopropyl-3-(4-(1-methylazetidin-3-yl)phenyl)-1H-pyrazol-5-yl)-8-methyl-[1,2,4]triazolo[1,5-a]pyridine]
0.53	3.84	19400	COc1cc(-c2[nH]nc(-c3ccc(C4CCN(CC(C)(C)O)CC4)cc3)c2C(C)C)cn2ncnc12 [Example 319]
1.13	0.8	11100	Cc1cc(-c2[nH]nc(C(=O)N[C@H]3CC[C@@H](N(CCC(C)(C)C)CCC(C)(C)C)CC3)c2C(C)C)cn2ncnc12 [Example 90]
0.41	0.35	6780	Cc1cc(-c2[nH]nc(-c3cnc(N)cn3)c2C(C)C)cn2ncnc12 [Example 226]
2.87	29.7	388	CNC(=O)c1n[nH]c(-c2cc(C)c3ncnn3c2)c1C(C)C [Example 27]
3.33	11.9	9310	Cc1cc(-c2[nH]nc(C(=O)NC3CN(CC4(C)COC4)C3)c2C(C)C)cn2ncnc12 [Example 154]
3.96	0.93	14800	Cc1cc(-c2[nH]nc(C(=O)NC3CCN(CC(C)(C)O)CC3)c2C(C)C)cn2ncnc12 [Example 138]
3.41	4.64	25500	Cc1cc(-c2[nH]nc(-c3ccc4c(c3)CCNC4)c2C(C)C)cn2ncnc12 [Example 213, 6-(4-isopropyl-5-(8-methyl-[1,2,4]triazolo[1,5-a]pyridin-6-yl)-1H-pyrazol-3-yl)-1,2,3,4-tetrahydroisoquinoline, HCl]
1.94	0.75	30400	Cc1cc(-c2[nH]nc(-c3ncc4c(n3)CCNC4)c2C(C)C)cn2ncnc12 [Example 222]
0.92	19.7	16300	COCC(C)N[C@H]1CC[C@H](NC(=O)c2n[nH]c(-c3cc(C)c4ncnn4c3)c2C(C)C)CC1 (stereo partly drawn) [Example 146]
3.14	4.15	7810	Cc1cc(-c2[nH]nc(C(=O)N3CCC(C(N)=O)CC3)c2C(C)C)cn2ncnc12 [Example 15]
